Experimental data taken from the NIST ThermoML archive (doi:10.1016/j.fluid.2018.11.035).

Test: wn = mass fraction of the nth substance listed
Details: 101 kPa, Liquid, Vibrating tube method, w1 = 0.365

OCCO [1,2-ethanediol] + O
Details	mass density [kg/m3]
283.15 K	1059.35
293.15 K	1054.78
303.15 K	1049.78
313.15 K	1044.38
323.15 K	1038.57
333.15 K	1032.23
